Patent US20200064357A1, “METHODS FOR DETERMINING AND MONITORING GASTROINTESTINAL INFLAMMATION” (Protagonist Therapeutics, Inc., priority 2016, published 2020)
“Also recorded” adds a separate entry of the source.

Legend:
Assay type in all cases: in vivo
Sprague-Dawley rats [1] = experiment: Serum LCN2, TNBS rat colitis model, ELISA (Example E2); settings: per ml of serum, vs vehicle
Method: (§1) The animals were grouped into sham, vehicle, and Peptide 993 treatment at 31 mg/kg/day. Feces were collected from the distal colon of rats and were immediately frozen at the time of necropsy. The feces samples were weighed and homogenized in extraction buffer (PBS pH 7.4 containing Pierce Protease Inhibitors, 3× volume:weight). The samples were incubated on ice for 90 minutes, with intermittent vortexing for complete homogenization. After centrifugation at 3000 g at 4 C, the homogenates were transferred to fresh tubes and subjected to another centrifugation at 14000 g at 4 C. The cleared supernatants were saved in multiple aliquots and stored at −80 C until analysis.
The serum samples were immediately frozen and thawed only once before use in the ELISA. For LCN2, the samples were diluted at different ratios with assay dilution buffer to capture the large variation in concentration amongst the different groups. The dilution ratios used were 1:10 (for sham), 1:1000, 1:2000 and 1:10000 (vehicle and Peptide 993). Fecal Lipocalin2(LCN2)/NGAL analysis:
Serum samples were analyzed for LCN2 concentration using the above ELISA protocol. Serum samples were used at dilutions ranging from 1:[…] to ensure that the measurements were within the range and sensitivity of the kit. […] Statistical analysis was performed using 1-Way-ANOVA with Dunnetts's multiple comparison.

Sprague-Dawley rats [2] = experiment: Protein biomarkers in feces, TNBS rat colitis model, ELISA (Example E2); settings: 31 mg/kg/day, normalized to total protein, vs vehicle
Method: as §1
The total protein in each sample was quantified using BCA assay. LCN2, MPO, and MMP-9 protein concentration in the feces samples were analysed using commercially available rat ELISA kits. For LCN2, the samples were diluted at different ratios with assay dilution buffer to capture the large variation in concentration amongst the different treatment groups. The dilution ratios used were 1:20 (sham), 1:200, 1:1000, 1:2000, and 1:4000 (vehicle and Peptide 993).
The concentration of LCN2 was normalized to the total protein measured for the sample. […] Statistical analysis was performed using 1-Way-ANOVA with Dunnetts's multiple comparison.
Fecal homogenates were analyzed for Myeloperoxidase (MPO) concentration using the Rat MPO ELISA kit (Catalog # HK105, Hycult biotech). The samples were used at dilutions ranging from 1:20 to 1:1000, to ensure that the measurements were within the range and sensitivity of the kit. […] A linear equation was used to fit the Standard Curve and the fitting parameters were used to calculate the concentration of MPO. The concentration of MPO for each sample was normalized to the total protein measured for the sample as described above. […] Statistical analyses were performed using 1-Way-ANOVA with Dunnetts's multiple comparison.

Sprague-Dawley rats [3] = experiment: Distal colon markers in TNBS-induced rat colitis: MPO, IL-17A, IL-22 by ELISA, pStat3 by IHC (Example E4)
Method: In the first model, acute colitis was induced in Sprague-Dawley rats by a single intra-rectal instillation of TNBS followed by efficacy analysis at day seven. The animals were grouped into sham+vehicle (PO TID), TNBS+vehicle (PO TID), anti-IL23p19 antibody (4 mg/kg/day IP, Day −1 and Day 3), and Peptide 993 treatment at 9, 28, or 61 mg/kg/day (PO TID+in drinking water). Sham indicates animals not treated with TNBS.
In addition, myeloperoxidase (MPO), IL-17A, and IL-22 detected from sampled tissue were quantified by enzyme-linked immunosorbent assay (ELISA), and the results are shown in FIGS. 10A-10C. The percentage of phosphorylated Signal Transducer and Activator of Transcription 3 (Stat3) was normalized to the area of the distal colon quantified by immuno-histochemistry (IHC) (FIG. 10D), and the micrographs shown in FIG. 10E are representative images from each indicated group for IHC analysis of pStat3 expression. Values shown as mean±SD. Statistical significance was assessed by One-way ANOVA with post-hoc Dunnett's vs. Vehicle control: *p≤0.05; **p≤0.01; ***p≤0.001; ****p≤0.0001; ns, not significant.
For the pSTAT3 assays, colon tissue samples were processed routinely, sectioned at approximately 3-5 microns, fixed in 10% neutral buffered formaldehyde, processed in paraffin, and immunolabeled with an anti-pSTAT3 primary antibody that binds STAT3 phosphorylated at Tyrosine 705 (Abcam, Cat. No. ab76315 PUR). pSTAT3 immunolabel as a percentage of total areas was measured using Visiopharm© image analysis software. Image analysis involved outlining the colon tissue as a region of interest (ROI), then an automated thresholding method was utilized for the classification of the pSTAT3 positive immunolabel. After classification, the total tissue area within the ROI was calculated, along with the count of pSTAT3 positive cells and the area (in microns) of the pSTAT3 positive cells. Lastly, the pSTAT3 immunolabel percentage of the total tissue area was calculated.
The details of the pSTAT3 Image Analysis Protocol were as follows:
1. ROI • a. Tissue was outlined, and non-colon tissues were excluded.
2. Pre-processing • a. Image was converted into grayscale-pixel values processed to be 0-255 • b. Grayscale image was filtered into two channels: • i. The DAB (or pSTAT3 positive) channel with pixels associated with the brown DAB staining; and • ii. The hematoxylin channel with pixels associated with the tissue area not stained with DAB (includes all tissue area and background staining).
3. Analysis & Classification • a. Algorithm using a “threshold” method was used to classify the tissue area within the ROI. • i. Threshold of the DAB channel was set to classify the positive pSTAT3 stained cells as any/all pixels (from the DAB channel of the pre-processed image) with values between 0-135. A green label was applied to these positively classified cells. • 1. Pixels with values outside the threshold of 0-135 were considered to be part of the tissue area (within the ROI). • b. […]
4. […] The total tissue area (within the ROI) was calculated-unit was in microns. • b. The total pSTAT3 positive area was calculated-unit is in microns. • c. The “count” of pSTAT3 positive cells was calculated. • d. The fraction of pSTAT3 positive cells was calculated by dividing the pSTAT3 positive area by the total tissue area-unit was in microns. • e. The nuclear density per square millimeter was calculated, simply to change the units from microns to square millimeter.

[4] = TNBS rats, oral treatment, ELISA

What does the source list for `CC(=O)NC(CCCNC(=N)N)C(=O)NC1CCSCC(C(=O)NC(Cc2ccc(OCCN)cc2)C(=O)NC(Cc2ccc3ccccc3c2)C(=O)NC2(C(=O)NC(CCC(=O)O)C(=O)NC(CC(N)=O)C(=O)NC(CC(N)=O)C(N)=O)CCOCC2)NC(=O)C(CCC(N)=O)NC(=O)C(Cc2c[nH]c3ccccc23)NC(=O)C(C(C)O)NC(=O)C(CCC(N)=O)NC1=O` (stereo not drawn) [Peptide 993, Ac-[(D)-Arg]-cyclo[[Abu]-QTWQC]-[Phe[4-(2-aminoethoxy)]]-[2-Nal]-[4-amino-4-carboxy-tetrahydropyran]-ENN-NH2]?
serum LCN2 concentration (Sprague-Dawley rats [1]): statistically significant decrease; fecal LCN2 concentration (Sprague-Dawley rats [2]): statistically significant decrease; also recorded: stastically significant decrease; fecal MMP-9 concentration (Sprague-Dawley rats [2]): stastically significant decrease; fecal MPO concentration (Sprague-Dawley rats [2]): statistically significant decrease; also recorded: stastically significant decrease; disease-related and IL-23-directed markers in the distal colons (MPO, IL-17A, IL-22, pStat3) (Sprague-Dawley rats [3]; TNBS rats, 9, 28 or 61 mg/kg/day oral, vs vehicle): significant and dose-dependent reduction; colonic levels of MPO (Sprague-Dawley rats [3]; [4]): decreased; levels of IL-17A, distal colon (Sprague-Dawley rats [3]; [4]): significantly reduced; levels of IL-22, distal colon (Sprague-Dawley rats [3]; [4]): significantly reduced; levels of pStat3, distal colon (Sprague-Dawley rats [3]; TNBS rats, oral treatment, IHC, percentage of area): restored to control levels
